Legend:
in vivo [1] = details: BALB/c, mouse, iv, 0.5 mg/kg
in vivo [2] = details: BALB/c, mouse, iv, 0.5 mg/kg; remark: listed apart in the source
in vivo [3] = details: BALB/c, mouse, po, 5 mg/kg
in vivo [4] = details: BALB/c, mouse, po, 5 mg/kg; remark: listed apart in the source
in vivo [5] = details: BALB/c, mouse, po, 5 mg/kg; remark: listed apart in the source
in vivo [6] = details: rat, iv, 0.5 mg/kg
in vivo [7] = details: Beagle, dog, iv
in vivo [8] = details: rat, iv, 0.5 mg/kg; remark: listed apart in the source
in vivo [9] = details: Beagle, dog, iv; remark: listed apart in the source
in vivo [10] = details: rat, po, 1 mg/kg
in vivo [11] = details: rat, po, 50 mg/kg
in vivo [12] = details: rat, po, 100 mg/kg
in vivo [13] = details: Beagle, dog, po, 0.5 mg/kg
in vivo [14] = details: rat, po, 1 mg/kg; remark: listed apart in the source
in vivo [15] = details: rat, po, 50 mg/kg; remark: listed apart in the source
in vivo [16] = details: rat, po, 100 mg/kg; remark: listed apart in the source
in vivo [17] = details: Beagle, dog, po, 0.5 mg/kg; remark: listed apart in the source
in vivo [18] = details: rat, po, 1 mg/kg; remark: listed apart in the source
in vivo [19] = details: rat, po, 50 mg/kg; remark: listed apart in the source
in vivo [20] = details: rat, po, 100 mg/kg; remark: listed apart in the source
in vivo [21] = details: Beagle, dog, po, 0.5 mg/kg; remark: listed apart in the source
in vivo [22] = details: rat, po, 1 mg/kg; remark: listed apart in the source
in vivo [23] = details: rat, po, 50 mg/kg; remark: listed apart in the source
in vivo [24] = details: rat, po, 100 mg/kg; remark: listed apart in the source
in vivo [25] = details: Beagle, dog, po, 0.5 mg/kg; remark: listed apart in the source
in vivo [26] = details: rat, po, 1 mg/kg; remark: listed apart in the source
in vivo [27] = details: rat, po, 50 mg/kg; remark: listed apart in the source
in vivo [28] = details: rat, po, 100 mg/kg; remark: listed apart in the source
in vivo [29] = details: Beagle, dog, po, 0.5 mg/kg; remark: listed apart in the source
in vitro [30] = details: CD1, mouse, microsomes
in vitro [31] = details: human, microsomes
physchem = details: buffer, pH 7.4

COc1cc(F)cc([C@@H](CO)NC(=O)[C@@H](C)N2Cc3ccc(-c4nc(NC5CCOCC5)ncc4Cl)cc3C2=O)c1 [BEROTERKIB ANHYDROUS]
clearance at 24 h (in vivo [1]): 22 mL/min/kg
Vd at 24 h (in vivo [2]): 0.68 L/kg
AUC at 24 h (in vivo [3]): 1600 ng·h/mL
half-life at 24 h (in vivo [4]): 2.9 h
bioavailability at 24 h (in vivo [5]): 42%
clearance at 24 h (in vivo [6]): 18 mL/min/kg
clearance at 24 h (in vivo [7]): 0.56 mL/min/kg
Vd at 24 h (in vivo [8]): 0.77 L/kg
Vd at 24 h (in vivo [9]): 0.071 L/kg
half-life at 24 h (in vivo [10]): 1.5 h
half-life at 24 h (in vivo [11]): 2.8 h
half-life at 24 h (in vivo [12]): 2.5 h
half-life at 24 h (in vivo [13]): 1.1 h
Tmax at 24 h (in vivo [14]): 0.5 h
Tmax at 24 h (in vivo [15]): 2 h
Tmax at 24 h (in vivo [16]): 2 h
Tmax at 24 h (in vivo [17]): 1 h
Cmax at 24 h (in vivo [18]): 25.8 ng/mL
Cmax at 24 h (in vivo [19]): 2740 ng/mL
Cmax at 24 h (in vivo [20]): 15700 ng/mL
Cmax at 24 h (in vivo [21]): 3660 ng/mL
AUC at 24 h (in vivo [22]): 57.9 ng·h/mL
AUC at 24 h (in vivo [23]): 17500 ng·h/mL
AUC at 24 h (in vivo [24]): 118000 ng·h/mL
AUC at 24 h (in vivo [25]): 12300 ng·h/mL
bioavailability at 24 h (in vivo [26]): 6.1%
bioavailability at 24 h (in vivo [27]): 35%
bioavailability at 24 h (in vivo [28]): > 100%
bioavailability at 24 h (in vivo [29]): 91%
half-life at 40 min, 1 µM (in vitro [30]): 0.767 h
half-life at 40 min, 1 µM (in vitro [31]): 0.55 h
chromatographic logD (physchem): 3.8
